Measured values reported in patent US20250034136A1 (Nimbus Wadjet, Inc., priority 2023, published 2025).
Where two headings read alike, the source gives them in different places.

Legend:
[1] = target: WRN (BV08), human Werner helicase (Uniprot Q14191, amino acids 517-1235 with L1074F point mutation) (Homo sapiens (Human), UniProt Q14191, L1074F); test: WRN (BV08) ADP-Glo assay; assay type: biochemical; details: class symbols A-E, read-out: ADP-Glo_hWRN_IC50
[2] = test system: p21 induction in HCT116 cells; test: p21 induction in HCT116 cells; assay type: cell-based; details: HCT116 cells, 24 h compound incubation, read-out: P21_EC50
How it was run: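 EC50 from non-linear curve fit of p21 immunofluorescence (800 nm), with GAPDH (700 nm) read alongside. DMSO and a reference WRN inhibitor served as low and high controls. Cells (2,000/well) got 11 compound concentrations in duplicate for 24 h at 37 °C.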

WRN (BV08), human Werner helicase (Uniprot Q14191, amino acids 517-1235 with L1074F point mutation), sequence (Q14191 other isoform, or with tags, fused parts or gaps L1074F (already in the parent)): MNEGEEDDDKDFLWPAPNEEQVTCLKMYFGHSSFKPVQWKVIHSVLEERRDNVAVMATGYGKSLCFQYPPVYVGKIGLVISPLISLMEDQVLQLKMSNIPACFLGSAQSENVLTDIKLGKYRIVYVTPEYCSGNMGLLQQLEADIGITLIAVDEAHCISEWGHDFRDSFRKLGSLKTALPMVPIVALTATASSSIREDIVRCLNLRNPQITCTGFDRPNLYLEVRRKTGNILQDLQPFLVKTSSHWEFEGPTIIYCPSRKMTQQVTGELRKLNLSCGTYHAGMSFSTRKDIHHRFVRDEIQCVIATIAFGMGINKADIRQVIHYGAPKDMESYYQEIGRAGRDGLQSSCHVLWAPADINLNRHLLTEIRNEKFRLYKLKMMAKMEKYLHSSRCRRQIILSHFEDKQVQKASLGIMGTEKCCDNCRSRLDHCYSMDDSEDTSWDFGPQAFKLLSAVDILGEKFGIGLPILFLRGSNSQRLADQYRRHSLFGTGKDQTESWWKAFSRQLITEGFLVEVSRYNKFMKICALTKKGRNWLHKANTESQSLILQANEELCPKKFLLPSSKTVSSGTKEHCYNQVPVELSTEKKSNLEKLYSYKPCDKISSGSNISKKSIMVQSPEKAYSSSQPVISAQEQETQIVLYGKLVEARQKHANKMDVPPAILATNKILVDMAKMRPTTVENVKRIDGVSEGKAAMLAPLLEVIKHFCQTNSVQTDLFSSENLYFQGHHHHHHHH

| IC50 [1] [nM] | EC50 ([2]; Homo sapiens, HCT-116, 24 h) [nM] | EC50 [2] [nM] | Compound |
| --- | --- | --- | --- |
| 5 to 50 | > 5000 | – | CCc1c(N2CCN(C(=O)c3ncnc(C)c3O)[C@H](C)[C@H]2C)c(=O)c2nc(N(C)C)cnc2n1CC(=O)Nc1ccc(C(F)(F)F)cc1Cl (single isomer, unassigned) [I-233, N-(2-chloro-4-(trifluoromethyl)phenyl)-2-(2-(dimethylamino)-6-ethyl-7-(4-(5-hydroxy-6-methylpyrimidine-4-carbonyl)-2,3-dimethylpiperazin-1-yl)-8-oxopyrido[2,3-b]pyrazin-5(8H)-yl)acetamide] |
| 5 to 50 | 500 to 2000 | – | CCc1c(N2CCN(C(=O)c3ncnc(C)c3O)[C@@H](C)[C@@H]2C)c(=O)c2nc(N(C)C)cnc2n1CC(=O)Nc1ccc(C(F)(F)F)cc1Cl (single isomer, unassigned) [I-234, N-(2-chloro-4-(trifluoromethyl)phenyl)-2-(2-(dimethylamino)-6-ethyl-7-(4-(5-hydroxy-6-methylpyrimidine-4-carbonyl)-2,3-dimethylpiperazin-1-yl)-8-oxopyrido[2,3-b]pyrazin-5(8H)-yl)acetamide] |
| 5 to 50 | > 5000 | – | CCc1c(N2CCN(C(=O)c3ncnc(C)c3O)CC2)c(=O)c2nc([C@H]3CC3(F)F)cnc2n1CC(=O)Nc1ccc(C(F)(F)F)cc1Cl (single isomer, unassigned) [I-238] |
| 100 to 500 | > 5000 | – | CCc1c(N2C[C@@H]3CC[C@H]2CN3C(=O)c2ncnc(C)c2O)c(=O)c2nc(N(C)C)cnc2n1CC(=O)Nc1ccc(C(F)(F)F)cc1Cl (single isomer, unassigned) [I-247, N-(2-chloro-4-(trifluoromethyl)phenyl)-2-(2-(dimethylamino)-6-ethyl-7-(5-(5-hydroxy-6-methylpyrimidine-4-carbonyl)-2,5-diazabicyclo[2.2.2]octan-2-yl)-8-oxopyrido[2,3-b]pyrazin-5(8H)-yl)acetamide] |
| 5 to 50 | < 500 | – | CCc1c(N2CCN(C(=O)c3c(OC)ncc(C)c3O)[C@@H]3CCC[C@@H]32)c(=O)c2nc(N(C)C)cnc2n1CC(=O)Nc1ccc(C(F)(F)F)cc1Cl (single isomer, unassigned) [I-251, N-(2-chloro-4-(trifluoromethyl)phenyl)-2-(2-(dimethylamino)-6-ethyl-7-(4-(4-hydroxy-2-methoxy-5-methylnicotinoyl)octahydro-1H-cyclopenta[b]pyrazin-1-yl)-8-oxopyrido[2,3-b]pyrazin-5(8H)-yl)acetamide] |
| 100 to 500 | 2000 to 5000 | – | CCc1c(N2CCN(C(=O)c3c(OC)ncc(C)c3O)[C@H]3CCC[C@H]32)c(=O)c2nc(N(C)C)cnc2n1CC(=O)Nc1ccc(C(F)(F)F)cc1Cl (single isomer, unassigned) [I-252, N-(2-chloro-4-(trifluoromethyl)phenyl)-2-(2-(dimethylamino)-6-ethyl-7-(4-(4-hydroxy-2-methoxy-5-methylnicotinoyl)octahydro-1H-cyclopenta[b]pyrazin-1-yl)-8-oxopyrido[2,3-b]pyrazin-5(8H)-yl)acetamide] |
| 100 to 500 | > 5000 | – | CCc1c(N2C[C@H]3C[C@@H]2CN3C(=O)c2ncnc(C)c2O)c(=O)c2nc(N(C)C)cnc2n1CC(=O)Nc1ccc(C(F)(F)F)cc1Cl (single isomer, unassigned) [I-256] |
| > 500 | – | > 5000 | CCc1c(N2C[C@H]3C[C@@H]2CN3C(=O)c2ncnc(C)c2O)c(=O)c2nc(N(C)C)cnc2n1CC(=O)Nc1ccc(C(F)(F)F)cc1Cl (single isomer, unassigned) [I-257] |
| 5 to 50 | 500 to 2000 | – | CCc1c([C@@]23CCN(C(=O)c4ncnc(C)c4O)C[C@@H]2C3)c(=O)c2nc(N(C)C)cnc2n1CC(=O)Nc1ccc(C(F)(F)F)cc1Cl (single isomer, unassigned) [I-276, N-(2-chloro-4-(trifluoromethyl)phenyl)-2-(2-(dimethylamino)-6-ethyl-7-(3-(5-hydroxy-6-methylpyrimidine-4-carbonyl)-3-azabicyclo[4.1.0]heptan-6-yl)-8-oxopyrido[2,3-b]pyrazin-5(8H)-yl)acetamide] |
